# Source: patent US20240199722A1, “NANOPLATFORM FOR TARGETING MACROPHAGE AND COMPOSITION FOR PREVENTION OR TREATMENT OF METASTATIC CANCER” (SEOUL NATIONAL UNIVERSITY R&DB FOUNDATION, priority 2021, published 2024)
# Tested on: macrophages at lung metastatic site
# Experiment: Early diagnosis of cancer metastasis in the 4T1-luc model: FDG-PET versus 111In-MSA-FL SPECT/CT (FIG. 8)
# Format: in vivo, mouse
# Description: In order to verify the possibility of early diagnosis of cancer metastasis of the albumin-based nanoplatform conjugated with the mannosyl group, a model that may represent cancer metastasis was reproduced and confirmed through tissue staining whether it could actually reflect metastasis.
# This animal model is known to naturally cause metastasis to secondary organs after transplanting cancer cells into mice, and is especially known to cause metastasis to the lung area, similar to the pattern of existing breast cancer.
smiles,measurement,setting,value
OC[C@H]1O[C@@H](O)[C@H]([18F])[C@@H](O)[C@@H]1O [FDG],time at which cancer metastasis could be diagnosed,day after modeling,28 days
same,nuclear medicine signal/image in the lung area before metastasis,"imaging on days 7, 14, 21, 28",could hardly be confirmed
same,"uptake at the metastatic site, statistical significance",quantification FIG. 8(b),statistically significant difference only on Day 28
